Molecular target: T1, sGC α1/β1 heterodimer (Homo sapiens, UniProt Q02108+Q02153)
T1 construct: expressed in transfected cells; host or cells: CHO-K1 (clone #7, CHO-K1/sGC)
T1 sequence (Q02108 1-690): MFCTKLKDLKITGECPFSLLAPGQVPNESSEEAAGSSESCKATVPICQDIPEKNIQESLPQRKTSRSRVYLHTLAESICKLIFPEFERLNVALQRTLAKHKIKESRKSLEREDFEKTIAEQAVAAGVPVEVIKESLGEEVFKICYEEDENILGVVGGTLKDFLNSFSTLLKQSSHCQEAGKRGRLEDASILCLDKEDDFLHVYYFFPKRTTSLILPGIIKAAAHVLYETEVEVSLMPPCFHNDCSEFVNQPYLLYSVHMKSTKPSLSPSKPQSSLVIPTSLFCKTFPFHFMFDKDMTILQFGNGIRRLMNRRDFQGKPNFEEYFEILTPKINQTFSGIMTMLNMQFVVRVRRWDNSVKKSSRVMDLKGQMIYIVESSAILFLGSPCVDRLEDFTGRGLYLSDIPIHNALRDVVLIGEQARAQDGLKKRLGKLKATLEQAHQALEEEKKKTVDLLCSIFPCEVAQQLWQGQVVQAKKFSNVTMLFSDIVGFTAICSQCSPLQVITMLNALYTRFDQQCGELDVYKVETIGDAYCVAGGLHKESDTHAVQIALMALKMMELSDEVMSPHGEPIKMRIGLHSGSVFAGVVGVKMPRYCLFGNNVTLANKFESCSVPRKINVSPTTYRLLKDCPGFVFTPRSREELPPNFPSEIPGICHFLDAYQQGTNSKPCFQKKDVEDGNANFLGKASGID
T1 sequence (Q02153 1-619): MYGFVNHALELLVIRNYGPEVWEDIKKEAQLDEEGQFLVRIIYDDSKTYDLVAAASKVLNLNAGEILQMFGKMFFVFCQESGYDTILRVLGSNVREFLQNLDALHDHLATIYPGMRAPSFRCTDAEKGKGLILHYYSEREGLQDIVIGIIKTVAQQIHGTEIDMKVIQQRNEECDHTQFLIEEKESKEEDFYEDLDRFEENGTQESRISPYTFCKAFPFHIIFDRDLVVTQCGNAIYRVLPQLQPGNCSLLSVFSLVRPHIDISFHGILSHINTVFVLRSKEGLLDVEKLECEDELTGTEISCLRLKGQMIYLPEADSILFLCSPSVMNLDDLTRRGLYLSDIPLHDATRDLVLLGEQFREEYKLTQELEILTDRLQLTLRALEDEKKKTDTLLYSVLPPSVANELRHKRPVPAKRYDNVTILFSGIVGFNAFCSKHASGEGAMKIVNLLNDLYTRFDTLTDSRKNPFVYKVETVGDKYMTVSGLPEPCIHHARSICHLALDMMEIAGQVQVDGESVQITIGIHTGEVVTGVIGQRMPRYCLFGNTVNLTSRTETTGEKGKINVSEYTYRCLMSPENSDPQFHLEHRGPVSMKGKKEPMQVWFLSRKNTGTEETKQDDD
Test: Cell-based sGC functional assay (CASA assay): cGMP generation in CHO-K1/sGC cells, HTRF detection
Details: for Emax: CHO-K1, percent activation relative to standard Compound A in CHO-K1/sGC cells, read-out: % Act.; for EC50: inflection point (IP) of cGMP generation in CHO-K1/sGC cells, 4P fit, activity expressed as percentage of Compound A
Procedure, shortened: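 cGMP was quantified by HTRF after 1 hr, 37° C exposure of thawed CHO-K1 cells expressing sGC α1/β1 to compound, with or without 1 μM DETA-NO. IBMX (0.5 mM) blocked cGMP breakdown, and DMSO was 2.5% final. Percent of standard Compound A's maximal cGMP was fitted (4P) for inflection point.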

Structure (SMILES) | Emax | EC50 | % Act. (percent activation relative to standard Compound A in CHO-K1/sGC cells)
CC1(c2ccc(Cl)cc2)C(=O)Nc2nc(-c3cn4ccnc4c(Cc4ccc(F)c(F)c4)n3)nc(N)c21 (stereo not shown) [Example 97A, 4-amino-5-(4-chlorophenyl)-2-(8-(3,4-difluorobenzyl)imidazo[1,2-a]pyrazin-6-yl)-5-methyl-5H-pyrrolo[2,3-d]pyrimidin-6(7H)-one] | 145% | 5 nM | –
COc1ccc(C2(C)C(=O)Nc3nc(-c4cn5ccnc5c(CCCC(F)(F)F)n4)nc(N)c32)nc1 (stereo not shown) [Example 212B, 4-amino-5-(5-methoxypyridin-2-yl)-5-methyl-2-(8-(4,4,4-trifluorobutyl)imidazo[1,2-a]pyrazin-6-yl)-5H-pyrrolo[2,3-d]pyrimidin-6(7H)-one] | 83% | 87 nM | –
CC1(c2ccc(F)cc2)C(=O)Nc2nc(-c3cn4c(Cc5ccccc5)cnc4c(CCC(F)(F)C(F)(F)F)n3)nc(N)c21 (stereo not shown) [Example 260A, 4-Amino-2-(3-benzyl-8-(3,3,4,4,4-pentafluorobutyl)imidazo[1,2-a]pyrazin-6-yl)-5-(4-fluorophenyl)-5-methyl-5H-pyrrolo[2,3-d]pyrimidin-6(7H)-one] | 90% | 504 nM | –
CC1(c2ccc(Cl)cc2)C(=O)Nc2nc(-c3cn4ccnc4cn3)nc(N3CC(F)(F)C3)c21 (single isomer, unassigned) [Example 277A] | 106% | 469 nM | –
CC1(c2ccc(Cl)cc2)C(=O)Nc2nc(-c3cn4ccnc4c(CCC(F)(F)F)n3)nc(N3CCOCC3)c21 (stereo not shown) [Example 297A, 5-(4-chlorophenyl)-5-methyl-4-morpholino-2-(8-(3,3,3-trifluoropropyl)imidazo[1,2-a]pyrazin-6-yl)-5H-pyrrolo[2,3-d]pyrimidin-6(7H)-one] | 101% | 466 nM | –
Cc1cc(Cl)cnc1C1(C2CC2)C(=O)Nc2nc(-c3cn4ccnc4c(CCCC(F)(F)F)n3)nc(N)c21 (single isomer, unassigned) [Example 364A, 4-amino-5-(5-chloro-3-methylpyridin-2-yl)-5-cyclopropyl-2-(8-(4,4,4-trifluorobutyl)imidazo[1,2-a]pyrazin-6-yl)-5H-pyrrolo[2,3-d]pyrimidin-6(7H)-one] | 138% | 273 nM | –
CC1(C)C(=O)Nc2nc(-c3cn4c(Cl)cnc4c(CCC(F)(F)C(F)(F)F)n3)nc(N)c21 [Example 257, 4-amino-2-(3-chloro-8-(3,3,4,4,4-pentafluorobutyl)imidazo [1,2-a]pyrazin-6-yl)-5,5-dimethyl-5H-pyrrolo[2,3-d]pyrimidin-6(7H)-one] | 146% | 614 nM | –
CC(C)c1nnc(C2(C3CC3)C(=O)Nc3nc(-c4cn5ccnc5c(CCC(F)(F)C(F)(F)F)n4)nc(N)c32)s1 (stereo not shown) [Example 55A, 4-amino-5-cyclopropyl-5-(5-isopropyl-1,3,4-thiadiazol-2-yl)-2-(8-(3,3,4,4,4-pentafluorobutyl)imidazo[1,2-a]pyrazin-6-yl)-5H-pyrrolo[2,3-d]pyrimidin-6(7H)-one] | 93% | 634 nM | –
CC1(c2ccc(Cl)cn2)C(=O)Nc2nc(-c3cn4ccnc4c(CC4CCC4)n3)nc(N)c21 (stereo not shown) [Example 116A, 4-amino-5-(5-chloropyridin-2-yl)-2-(8-(cyclobutylmethyl)imidazo [1,2-a]pyrazin-6-yl)-5-methyl-5H-pyrrolo[2,3-d]pyrimidin-6(7H)-one] | 79% | 10 nM | –
CC1(c2ccc(Cl)cc2)C(=O)Nc2nc(-c3cn4ccnc4c(CCCC(F)(F)F)n3)nc(N)c21 (stereo not shown) [Example 206A, 4-amino-5-(4-chlorophenyl)-5-methyl-2-(8-(4,4,4-trifluorobutyl)imidazo[1,2-a]pyrazin-6-yl)-5H-pyrrolo[2,3-d]pyrimidin-6(7H)-one] | 116% | 21 nM | –
CC1(c2ccc(F)cc2)C(=O)Nc2nc(-c3cn4c(N)cnc4c(CCC(F)(F)C(F)(F)F)n3)nc(N)c21 (stereo not shown) [Example 267A, 4-Amino-2-(3-amino-8-(3,3,4,4,4-pentafluorobutyl)imidazo[1,2-a]pyrazin-6-yl)-5-(4-fluorophenyl)-5-methyl-5H-pyrrolo[2,3-d]pyrimidin-6(7H)-one] | 91% | 212 nM | –
CC1(C(=O)NC2CC2)C(=O)Nc2nc(-c3cn4ccnc4c(Cc4cccc(F)c4)n3)nc(N)c21 (single isomer, unassigned) [Example 36B, 4-amino-N-cyclopropyl-2-(8-(3-fluorobenzyl)imidazo[1,2-a]pyrazin-6-yl)-5-methyl-6-oxo-6,7-dihydro-5H-pyrrolo[2,3-d]pyrimidine-5-carboxamide] | – | 959 nM | 154%
Cc1nc(C2(C3CC3)C(=O)Nc3nc(-c4cn5ccnc5c(CCC(F)(F)C(F)(F)F)n4)nc(N)c32)ccc1F (single isomer, unassigned) [Example 363B, 4-amino-5-cyclopropyl-5-(5-fluoro-6-methylpyridin-2-yl)-2-(8-(3,3,4,4,4-pentafluorobutyl)imidazo[1,2-a]pyrazin-6-yl)-5H-pyrrolo[2,3-d]pyrimidin-6(7H)-one] | 186% | 244 nM | –
CC1(c2ccc(F)cc2)C(=O)Nc2nc(-c3cn4c(C#N)cnc4c(CCC(F)(F)C(F)(F)F)n3)nc(N)c21 (stereo not shown) [Example 273A, 6-(4-Amino-5-(4-fluorophenyl)-5-methyl-6-oxo-6,7-dihydro-5H-pyrrolo[2,3-d]pyrimidin-2-yl)-8-(3,3,4,4,4-pentafluorobutyl)imidazo[1,2-3a]pyrazine-3-carbonitrile] | 81% | 61 nM | –
Cc1cnc(C2(C3CC3)C(=O)Nc3nc(-c4cn5ccnc5c(CCCC(F)(F)F)n4)nc(N)c32)cn1 (single isomer, unassigned) [Example 357B, 4-amino-5-cyclopropyl-5-(5-methylpyrazin-2-yl)-2-(8-(4,4,4-trifluorobutyl)imidazo[1,2-a]pyrazin-6-yl)-5H-pyrrolo[2,3-d]pyrimidin-6(7H)-one] | 113% | 680 nM | –
CCC1(C)C(=O)Nc2nc(-c3cn4ccnc4c(Cc4ccccc4)n3)nc(N)c21 (stereo not shown) [Example 84A, 4-amino-2-(8-benzylimidazo[1,2-a]pyrazin-6-yl)-5-ethyl-5-methyl-5H-pyrrolo[2,3-d]pyrimidin-6(7H)-one] | 90% | 58 nM | –
CC1(c2ccc(Cl)cc2)C(=O)Nc2nc(-c3cn4ccnc4cn3)nc(NC3CC(F)(F)C3)c21 (stereo not shown) [Example 287A, 5-(4-chlorophenyl)-4-((3,3-difluorocyclobutyl)amino)-2-(imidazo[1,2-a]pyrazin-6-yl)-5-methyl-5H-pyrrolo[2,3-d]pyrimidin-6(7H)-one] | 133% | 376 nM | –
COc1ccc(C2(C)C(=O)Nc3nc(-c4cn5ccnc5c(CCC(F)(F)C(F)(F)F)n4)nc(N)c32)cc1 (stereo not shown) [Example 229B, 4-amino-5-(4-methoxyphenyl)-5-methyl-2-(8-(3,3,4,4,4-pentafluorobutyl)imidazo [1,2-a]pyrazin-6-yl)-5H-pyrrolo[2,3-d]pyrimidin-6(7H)-one] | 122% | 26 nM | –
Nc1nc(-c2cn3ccnc3cn2)nc2c1C(c1ccc(Cl)cc1)(C1CC1)C(=O)N2 (stereo not shown) [Example 146B, 4-amino-5-(4-chlorophenyl)-5-cyclopropyl-2-(imidazo[1,2-a]pyrazin-6-yl)-5H-pyrrolo[2,3-d]pyrimidin-6(7H)-one] | 95% | 461 nM | –
Cc1cncc(C2(C3CC3)C(=O)Nc3nc(-c4cn5ccnc5c(CCC(F)(F)C(F)(F)F)n4)nc(N)c32)n1 (single isomer, unassigned) [Example 366B, 4-amino-5-cyclopropyl-5-(6-methylpyrazin-2-yl)-2-(8-(3,3,4,4,4-pentafluorobutyl)imidazo[1,2-a]pyrazin-6-yl)-5H-pyrrolo[2,3-d]pyrimidin-6(7H)-one] | 122% | 843 nM | –

Reference: patent US9796733B2, “Imidazo-pyrazine derivatives useful as soluble guanylate cyclase activators” (Merck Sharp & Dohme Corp., priority 2014, dated 2017)
